Results on one compound are retold here after patent US20020142327A1, “Expression analysis of smarc nucleic acids and polypeptides useful in the diagnosis and treatment of prostate cancer” (priority 2000, published 2002).

Holding throughout (format): cell-based, Human
One experiment deals with SMARCD3 expression. Kind of experiment: Affymetrix GeneChip expression analysis of LNCaP cells, SMARCD3. Here is the method: (§1) Human prostatic cancer cell lines LNCaP, DU-145, PC-3, and Tsu-prl were obtained from ATCC. LNCaP cancer cells were maintained in humidified atmosphere of 5% CO2 in air in RPMI 1640 medium supplemented with 10% fetal calf serum (Life Technologies, Inc, Rockville, Md.), 3 mM L-glutamine, 100 μg/ml streptomycin and 100 units/ml penicillin. Other lines were maintained in DMEM containing 3 mM L-glutamine, 100 μg/ml streptomycin, 100 units/ml penicillin, and 10% FCS in humidified atmosphere of 5% CO2. To examine the effects of steroids, cells were cultured in RPMI 1640 medium containing 5% FCS treated with dextran coated charcoal (Hyclone, Logan, Utah) for 24 hs before treatment. Cells were grown in the absence or presence of 10 nM DHT for 0, 2, 4, 6, 12, 24, 48, and 72 hs. They were collected and frozen at each time point. Two hundred μl of medium were collected from each flask for PSA assay.
Total RNA was isolated from LNCaP cells using the Qiagen Rneasy Midi Kit following the manufacturer's recommendations. For polyA (+) selection, the Promega PolyATract kit was used according to manufacturer's procedures. Briefly, LNCaP cells were collected by centrifugation and the RNA isolated using the buffers and recommended procedures from the Qiagen kit. Following RNA extraction, all samples were frozen at −80° C. One microgram of poly A(+) RNA was used as template for synthesis of double-stranded cDNA using the GibcoBRL cDNA synthesis kit, with an oligo dT primer incorporating a T7 RNA polymerase promoter (10 minutes at 70° C. for priming, 65 minutes at 37° C. for first strand synthesis with Superscript II RT, followed by 150 min at 15.8° C. for second strand synthesis with E. coli ligase, E. coli polymerase, and RNAse H). […] The cRNA was purified by SPRI using paramagnetic beads (Bangs Laboratories), and total molar concentration was determined from the absorbance at 260. […]

The subject of a further experiment is LNCaP cells. Briefly: Cell growth assay (MTT) of LNCaP cells treated with DHT. Here is the method:
as §1
To verify the effect of DHT on the growth of LNCaP cells, cells at 3,000 cells/well were plated in 96-well plates for 24 hs before treatment with DHT. After 72 hs, MTT was added to each well and incubated at 37° C. for four hs. At the end of incubation, the supernatant was removed and 100 μl DMSO was added to each well to dissolve […]. Plates were subsequently read in a plate reader at […].

For a further experiment, the system named is PSA production. Briefly: PSA ELISA on medium of LNCaP cells treated with DHT. Here is the method:
as §1
Quantification of PSA was performed using an ELISA. Briefly, a 96-well Nunc plate was coated with 100 μl of goat anti-PSA (1 μg/ml, Scripps laboratory, San Diego, Calif.) overnight at 4° C. The plate was washed with water three times and incubated with 100 μl of blocking buffer (PBS, 0.05% Tween 20, 1 μM EDTA, 0.25% BSA, and 0.05% NaN3) for 1 h at room temperature. The plate was washed three times with water and incubated with 1:1 mixture of mouse anti-human PSA and Eu-labeled anti-mouse IgG (10 ng/antibody each/well for 1½ hs at RT). The plate was then washed four times with water. 100 μl of Delfia Enhancement Solution (PerkinElmer Wallac Inc (Norton, Ohio) was added to the plate was read using a Victor reader according to the manufacturer's instruction.
A general note: ELISA stands for enzyme-linked immunosorbent assay.

Experiment [1] deals with prostate specific antigen (PSA) expression. Kind of experiment: Affymetrix GeneChip expression analysis of LNCaP cells, PSA. To be noted: 10 nM DHT. Here is the method: as §1
Total RNA was isolated from LNCaP cells using the Qiagen Rneasy Midi Kit following the manufacturer's recommendations. For polyA (+) selection, the Promega PolyATract kit was used according to manufacturer's procedures. […] The cRNA was purified by SPRI using paramagnetic beads (Bangs Laboratories), and total molar concentration was determined from the absorbance at 260. […]

For the compound `C[C@]12CCC(=O)C[C@@H]1CC[C@@H]1[C@@H]2CC[C@]2(C)[C@@H](O)CC[C@@H]12` [DHT], the “decrease in SMARCD3 expression levels” value is reported as 2 fold in the experiment on SMARCD3 expression (24 hours post-androgen treatment), 4 fold in the experiment on SMARCD3 expression (48 hours post-treatment) and 6 fold in the experiment with SMARCD3 expression (72 hours post-treatment). Also, in the experiment on LNCaP cells (10 nM DHT), the “growth effect at the chosen concentration” value is reported as “robust growth-stimulatory effect”. Also, the “growth of LNCaP cells” value in the experiment with LNCaP cells (dose response, 72 hs, MTT) is on record as “stimulated”. Moreover, the “time at which PSA signal was first detected” value in the experiment on PSA production (DHT treatment) came to 12 h. The “time of maximal PSA level” value with PSA production (DHT treatment) is given as “about 48 hs”. Moreover, the PSA production entry in the experiment with PSA production (dose response, ELISA) is reported as “increased in a dose-dependent manner”. Besides, the “PSA expression increase relative to control” value in experiment [1] (12 hours) is listed as 3 fold. For the same compound, the “PSA expression induction relative to control” value in experiment [1] (72 hours) is reported as “approximately 4 fold”.
